Patent US20160199367A1, “Composition for the prevention or treatment of the symptoms in the stroke comprising the inhibitor of Pin1” (RESEARCH & BUSINESS FOUNDATION SUNGKYUNKWAN UNIVERSITY, priority 2015, published 2016)

What was measured:
[1] = test system: SH-SY5Y cells; assay: Apoptosis of SH-SY5Y cells under GD or OGD by trypan blue staining; format: cell-based, human; details: OGD or GD condition for 6 hours or 12 hours, juglone 1.5 μM, PiB 5 μM, DTM 5 μM, FIGS. 5A to 5D
Procedure: By the method as described in Example 4, SH-SY5Y cells were exposed to OGD or GD conditions to induce apoptosis, and Pin1 inhibitors including juglone were treated to verify a neuroprotective effect.
SH-SY5Y cells were treated with Pin1 inhibitors such as 5-hydroxy-1,4-naphthoquinone (juglone), diethyl-1,3,6,8-tetrahydro-1,3,6,8-tetraoxobenzo phenanthroline-2,7-diacetate (PiB), and dipentamethylene thiuram monosulfide (DTM) at a concentration each of 1.5, 5 or 5 μM, and exposed to a GD or OGD condition for 6 hours or 12 hours to induce apoptosis, and then stained with trypan blue (0.4%) to quantify a degree of apoptosis.

[2] = test system: NICD1 protein; assay: NICD1 protein expression by western blotting in SH-SY5Y cells; format: cell-based, human; details: 5 μM, treated in combination after overexpression of Pin1, SH-SY5Y, FIG. 1B
Procedure: In Examples according to the present invention, a human neuroblastoma cell line, SH-SY5Y, and a mouse embryonic fibroblast cell line, an MEF cell, were used. All of the cells were cultured in DMEM (Sigma) media containing 10% fetal bovine serum (Gibco, Welgene, Hyclone) and 1% penicillin/streptomycin.
A sample was prepared by isolating a protein from cells, and analyzed by 10% sodium dodecyl sulfate (SDS)-polyacrylamide gel electrophoresis using Tris-glycine running buffer. The gel was removed after the electrophoresis, and a transferring process was performed using a transfer buffer containing 0.025 mol/L Tris base, 0.15 mol/L glycine, and 10% (v/v) methanol at 15 V for 1.5 hours to transfer proteins onto a nitrocellulose membrane along an electrical flow. The protein-binding membrane was immersed in blocking buffer (5% non-fat milk in 20 mM Tris-HCl, pH 7.5, 137 mM NaCl, 0.2% Tween-20), and reacted at room temperature for 1 hour. […]
First, to verify the correlation between the Notch1 signaling activity and Pin1, Pin1 protein was overexpressed with Pin1 cDNA in a human neuroblastoma cell line, SH-SY5Y, and a change in expression of a Notch1 signaling-activation molecule, NICD1 protein, was analyzed by western blotting (WB). […]

[3] = test system: FBW7 protein; assay: FBW7 expression in MCAO mouse brain, administration after stroke (western blotting); format: in vivo; details: 3 mg/kg once by intravenous injection after MCAO, compared to control group, FIGS. 8C and 8D
Procedure: (§1) A sample was prepared by isolating a protein from cells, and analyzed by 10% sodium dodecyl sulfate (SDS)-polyacrylamide gel electrophoresis using Tris-glycine running buffer. The gel was removed after the electrophoresis, and a transferring process was performed using a transfer buffer containing 0.025 mol/L Tris base, 0.15 mol/L glycine, and 10% (v/v) methanol at 15 V for 1.5 hours to transfer proteins onto a nitrocellulose membrane along an electrical flow. The protein-binding membrane was immersed in blocking buffer (5% non-fat milk in 20 mM Tris-HCl, pH 7.5, 137 mM NaCl, 0.2% Tween-20), and reacted at room temperature for 1 hour. […] The next day, the membrane was washed with Tris-buffered saline-T (20 mM Tris-HCL, pH 7.5, 137 mM NaCl, 0.2% Tween-20) three times each for 10 minutes. In addition, the membrane was reacted with secondary antibodies at room temperature for 1 hour, washed again three times, and then scanned using an Odyssey® Infrared Imaging System (LI-COR Biosciences) or ECL-plus system to analyze the expression level of each protein.
(§2) A mouse was anesthetized and an epidermis around the neck was incised. The left common carotid artery linked to the left hemisphere was ligated with a surgical suture, and then the external carotid artery was incised to insert a filament thereinto. […]

[4] = test system: Pin1 protein; assay: Pin1 expression in MCAO mouse brain, administration after stroke (western blotting); format: in vivo; details: 3 mg/kg once by intravenous injection after MCAO, compared to control group, FIGS. 8C and 8D
Procedure: as §1, §2

[5] = test system: NICD1 protein; assay: NICD1 expression in MCAO mouse brain, administration after stroke (western blotting); format: in vivo; details: 3 mg/kg once by intravenous injection after MCAO, compared to control group, FIGS. 8C and 8D
Procedure: as §1, §2

[6] = test system: FBW7 protein; assay: FBW7 expression in left hemisphere of MCAO mouse, administration before MCAO (western blotting); format: in vivo; details: 3 mg/kg intraperitoneally twice before MCAO, compared to control group, FIGS. 7C and 7D
Procedure: as §1
(§3) A mouse was anesthetized and an epidermis around the neck was incised. […]
(§4) In addition, the left hemisphere of the stroke-triggered mouse was analyzed by western blotting to compare the expressions of NICD1, Pin1 and FBW7 proteins.

[7] = test system: NICD1 ubiquitination; assay: NICD1 ubiquitination by co-immunoprecipitation and western blotting in Pin1-overexpressing SH-SY5Y cells; format: cell-based, human; details: 1.5 μM, Pin1-overexpressing SH-SY5Y treated with MG132, FIG. 3A
Text: MYC-tagged NICD1, HA-tagged ubiquitin (Ub), and Pin1 were expressed in SH-SY5Y cell lines, and treated with MG132 to inhibit a proteolytic activity of a 26S proteasome complex. Afterward, HA and FBW7-specific antibodies were used to analyze a degree of NICD1 ubiquitination by co-immunoprecipitation (IP) and western blotting (WB).

[8] = test system: NICD1 protein; assay: NICD1 expression in left hemisphere of MCAO mouse, administration before MCAO (western blotting); format: in vivo; details: 3 mg/kg intraperitoneally twice before MCAO, compared to control group, FIGS. 7C and 7D
Procedure: as §1, §3, §4

[9] = test system: cleaved caspase-3 (CLCas-3) protein; assay: Cleaved caspase-3 expression in primary neuronal cells under GD or OGD by western blotting; format: cell-based; details: GD or OGD condition for 12 hours or 24 hours, FIGS. 4D and 4E
Procedure: (§5) A sample was prepared by isolating a protein from cells, and analyzed by 10% sodium dodecyl sulfate (SDS)-polyacrylamide gel electrophoresis using Tris-glycine running buffer. The gel was removed after the electrophoresis, and a transferring process was performed using a transfer buffer containing 0.025 mol/L Tris base, 0.15 mol/L glycine, and 10% (v/v) methanol at 15 V for 1.5 hours to transfer proteins onto a nitrocellulose membrane along an electrical flow. The protein-binding membrane was immersed in blocking buffer (5% non-fat milk in 20 mM Tris-HCl, pH 7.5, 137 mM NaCl, 0.2% Tween-20), and reacted at room temperature for 1 hour. Afterward, the membrane was reacted overnight with primary antibodies, such as Pin1 (R&D, Epitomics), NICD1 (Upstate), MYC (Roche), FBW7 (Bioss), or Actin (Sigma), which specifically bound to each protein whose expression level was to be confirmed, at 4° C. The next day, the membrane was washed with Tris-buffered saline-T (20 mM Tris-HCL, pH 7.5, 137 mM NaCl, 0.2% Tween-20) three times each for 10 minutes. […]
(§6) Subsequently, primary neuronal cells were cultured under a GD or OGD condition for 12 hours or 24 hours, and then changes in expressions of caspase-3, which is one of the apoptosis signal proteins, and NICD1 protein were analyzed by western blotting.

[10] = test system: middle cerebral artery occlusion (MCAO) animal model; assay: Neuroprotective effect in MCAO animal model, administration after triggering of ischemic stroke; format: in vivo; details: mouse, 3 mg/kg once by intravenous injection after MCAO operation, compared to control group
Text: (§7) A mouse was anesthetized and an epidermis around the neck was incised. The left common carotid artery linked to the left hemisphere was ligated with a surgical suture, and then the external carotid artery was incised to insert a filament thereinto. The filament was pushed into the middle cerebral artery through the internal carotid artery to locally clog the middle cerebral artery, thereby interrupting blood supply to construct an ischemic animal model. After cerebral infarction was induced in the animal model for 1 hour, the filament was removed from the blood vessel (artery), and then the blood was supplied again to the blood vessel, followed by suturing.
An MCAO operation was conducted on a mouse as described in Example 1-4 to trigger ischemic stroke, and then juglone (3 mg/kg) was administered once to the mouse by intravenous injection. Afterward, the resultant mouse was compared with the control group mouse to which the juglone was not administered.

[11] = test system: NICD1 protein; assay: NICD1 expression in primary neuronal cells under GD or OGD by western blotting; format: cell-based; details: GD or OGD condition, FIGS. 4F and 4G
Procedure: as §5, §6

[12] = test system: primary neuronal cells; assay: Neuronal cell death under OGD condition by trypan blue staining; details: OGD condition for 12 hours, FIG. 4C
Procedure: (§8) Primary neuronal cells were cultured in a glucose and serum-free medium in a 5% or 1% oxygen incubator for 9, 12 and 24 hours to create an ischemic stroke-like environment on a cellular level, thereby inducing the neuronal cell death. Afterward, an expression level of the Pin1 protein was analyzed by immunocytochemistry and western blotting.
(§9) In addition, after the neuronal cells were cultured under the OGD condition for 12 hours, the induction of the neuronal cell death was detected by trypan blue (0.4%) staining, which is shown in FIG. 4C.

[13] = test system: Pin1 protein; assay: Pin1 protein expression in primary neuronal cells in ischemic stroke-like environment (immunocytochemistry, western blotting); format: cell-based; details: OGD or GD condition, FIGS. 4A and 4B
Procedure: as §8, §9

[14] = test system: middle cerebral artery occlusion (MCAO) animal model; assay: Stroke inhibitory effect in MCAO animal model, administration before MCAO operation; format: in vivo; details: mouse, 3 mg/kg intraperitoneally twice before MCAO operation, compared to control group
Text: as §7
Ischemic stroke was trigged in the mouse by intraperitoneally administering the juglone (3 mg/kg) twice and conducting an MCAO operation, and then the resultant mouse was compared with a control group mouse to which the juglone was not administered.

[15] = test system: Pin1 protein; assay: Pin1 expression in left hemisphere of MCAO mouse, administration before MCAO (western blotting); format: in vivo; details: 3 mg/kg intraperitoneally twice before MCAO, compared to control group, FIGS. 7C and 7D
Procedure: as §1, §3, §4

**Q.** For `S=C(SC(=S)N1CCCCC1)N1CCCCC1` [DTM, dipentamethylene thiuram monosulfide], which “apoptosis (trypan blue)” value [1] is on record?
**A.** decreased to a greater or less extent

**Q.** `C[C@H](NC(=O)Cc1cc(F)cc(F)c1)C(=O)N[C@H](C(=O)OC(C)(C)C)c1ccccc1` [DAPT, N-[N-(3,5-difluorophenacetyl)-1-alanyl]-S-phenylglycine t-butyl ester] was tested. Which “expression of NICD1 protein” value [2] did it give?
**A.** increase in NICD1 was not found

**Q.** With `O=C1C=CC(=O)c2c(O)cccc21` [juglone, 5-hydroxy-1,4-naphthoquinone] as the compound, how does the “expression of FBW7 protein” value [3] read?
**A.** increased

**Q.** What about the “expression of Pin1 protein” value [4] of the same compound?
**A.** decreased

**Q.** And the “expression of NICD1 protein” value [5]?
**A.** decreased

**Q.** And the “expression of FBW7 protein” value [6]?
**A.** increased

**Q.** What about the “apoptosis (trypan blue)” value [1] of the same compound?
**A.** decreased to a greater or less extent

**Q.** And the NICD1 ubiquitination [7]?
**A.** increased again

**Q.** What about the “expression of NICD1 protein” value [8] of the same compound?
**A.** decreased

**Q.** What about the “expression of cleaved caspase-3 (CLCas-3) protein” value [9] of the same compound?
**A.** decreased

**Q.** And the generation of ischemia ([10]; FIG. 8A)?
**A.** decreased

**Q.** What about the neurological deficits ([10]; FIG. 8B) of the same compound?
**A.** decreased

**Q.** And the “expression of NICD1 protein” value [11]?
**A.** decreased

**Q.** And the “apoptosis (neuronal cell death, trypan blue)” value [12]?
**A.** reduced

**Q.** What about the Pin1 expression [13] of the same compound?
**A.** reduced

**Q.** What about the generation of ischemia ([14]; FIG. 7A) of the same compound?
**A.** decreased

**Q.** What about the neurological deficits ([14]; FIG. 7B) of the same compound?
**A.** decreased

**Q.** And the “expression of Pin1 protein” value [15]?
**A.** decreased

**Q.** `CCOC(=O)CN1C(=O)c2ccc3c4c(ccc(c24)C1=O)C(=O)N(CC(=O)OCC)C3=O` [PiB, diethyl-1,3,6,8-tetrahydro-1,3,6,8-tetraoxobenzo phenanthroline-2,7-diacetate] was tested. Which “apoptosis (trypan blue)” value [1] did it give?
**A.** decreased to a greater or less extent
